PubChem BioAssay AID1963830 (Molecular Pharmacology Branch, DTP, NCI, 2024)
pIC50: −log10 of the molar value.

System: 922993-354-T-J3-PDC complex spheroid viability
Assay: Anticancer human tumor 922993-354-T-J3-PDC patient-derived endometrial carcinoma cell line growth inhibition [POLQ]
Conditions: for pIC50: curve of first compound; for viability, T/C: stronger effect = lower value
Summary of the method: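 Growth inhibition in 3D: complex spheroids (tumor PDC, HUVEC, MSC) treated with POLQ inhibitor combinations; where Cmax unknown, highest tested concentration 10 microM, except SN-38 at 1 microM.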

[1] = second compound 0.0316 µM, first compound 0.0316 µM
[2] = second compound 0.0316 µM, first compound 0.1 µM
[3] = second compound 0.0316 µM, first compound 0.316 µM
[4] = second compound 0.0316 µM, first compound 1 µM
[5] = second compound 0.0316 µM, first compound 3.16 µM
[6] = second compound 0.0316 µM, first compound 10 µM
[7] = second compound 0.1 µM, first compound 0.0316 µM
[8] = second compound 0.1 µM, first compound 0.1 µM
[9] = second compound 0.1 µM, first compound 0.316 µM
[10] = second compound 0.1 µM, first compound 1 µM
[11] = second compound 0.1 µM, first compound 3.16 µM
[12] = second compound 0.1 µM, first compound 10 µM
[13] = second compound 0.316 µM, first compound 0.0316 µM
[14] = second compound 0.316 µM, first compound 0.1 µM
[15] = second compound 0.316 µM, first compound 0.316 µM
[16] = second compound 0.316 µM, first compound 1 µM
[17] = second compound 0.316 µM, first compound 3.16 µM
[18] = second compound 0.316 µM, first compound 10 µM
[19] = second compound 1 µM, first compound 0.0316 µM
[20] = second compound 1 µM, first compound 0.1 µM
[21] = second compound 1 µM, first compound 0.316 µM
[22] = second compound 1 µM, first compound 1 µM
[23] = second compound 1 µM, first compound 3.16 µM
[24] = second compound 1 µM, first compound 10 µM
[25] = second compound 3.16 µM, first compound 0.0316 µM
[26] = second compound 3.16 µM, first compound 0.1 µM
[27] = second compound 3.16 µM, first compound 0.316 µM
[28] = second compound 3.16 µM, first compound 1 µM
[29] = second compound 3.16 µM, first compound 3.16 µM
[30] = second compound 3.16 µM, first compound 10 µM
[31] = second compound 10 µM, first compound 0.0316 µM
[32] = second compound 10 µM, first compound 0.1 µM
[33] = second compound 10 µM, first compound 0.316 µM
[34] = second compound 10 µM, first compound 1 µM
[35] = second compound 10 µM, first compound 3.16 µM
[36] = second compound 10 µM, first compound 10 µM
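Note: spheroids exposed to the agents for one week.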
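Throughout, for viability, T/C: 100% = DMSO vehicle control wells.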

C#Cc1c(F)ccc2cc(O)cc(-c3ncc4c(N5CC6CCC(C5)N6)nc(OCC56CCCN5CC(F)C6)nc4c3F)c12 (stereo not drawn) + COC1C(OC(N)=O)C(O)C(Oc2ccc3c(O)c(NC(=O)c4ccc(O)c(CC=C(C)C)c4)c(=O)oc3c2C)OC1(C)C
pIC50 (second compound 0.0316 µM): < 5.00 | pIC50 (second compound 0.1 µM): < 5.00 | pIC50 (second compound 0.316 µM): < 5.00 | pIC50 (second compound 1 µM): < 5.00 | pIC50 (second compound 3.16 µM): < 5.00 | pIC50 (second compound 10 µM): < 5.00 | viability, T/C [1]: 100% | viability, T/C [2]: 97.4% | viability, T/C [3]: 90.5% | viability, T/C [4]: 101% | viability, T/C [5]: 98% | viability, T/C [6]: 79.5% | viability, T/C [7]: 105% | viability, T/C [8]: 101% | viability, T/C [9]: 98.8% | viability, T/C [10]: 90.3% | viability, T/C [11]: 94.9% | viability, T/C [12]: 90.4% | viability, T/C [13]: 105% | viability, T/C [14]: 98.4% | viability, T/C [15]: 104% | viability, T/C [16]: 87.2% | viability, T/C [17]: 92.8% | viability, T/C [18]: 90% | viability, T/C [19]: 96.9% | viability, T/C [20]: 98.8% | viability, T/C [21]: 94.9% | viability, T/C [22]: 94.2% | viability, T/C [23]: 93% | viability, T/C [24]: 86.9% | viability, T/C [25]: 96.9% | viability, T/C [26]: 90.3% | viability, T/C [27]: 98.3% | viability, T/C [28]: 81.7% | viability, T/C [29]: 99.5% | viability, T/C [30]: 74.9% | viability, T/C [31]: 81.8% | viability, T/C [32]: 86.2% | viability, T/C [33]: 90.4% | viability, T/C [34]: 89.5% | viability, T/C [35]: 96.2% | viability, T/C [36]: 72.1%

CC1COCCN1c1cc(C2(O)CC3CCC(C2)O3)c2cnn(-c3ccn[nH]3)c2n1 (stereo not drawn) + COC1C(OC(N)=O)C(O)C(Oc2ccc3c(O)c(NC(=O)c4ccc(O)c(CC=C(C)C)c4)c(=O)oc3c2C)OC1(C)C
pIC50 (second compound 0.0316 µM): 6.47 | pIC50 (second compound 0.1 µM): 6.43 | pIC50 (second compound 0.316 µM): 6.44 | pIC50 (second compound 1 µM): 6.42 | pIC50 (second compound 3.16 µM): 6.44 | pIC50 (second compound 10 µM): 6.41 | viability, T/C [1]: 101% | viability, T/C [2]: 80.6% | viability, T/C [3]: 54.1% | viability, T/C [4]: 23.1% | viability, T/C [5]: 8.69% | viability, T/C [6]: 11.8% | viability, T/C [7]: 107% | viability, T/C [8]: 68.5% | viability, T/C [9]: 66.4% | viability, T/C [10]: 26.7% | viability, T/C [11]: 10.4% | viability, T/C [12]: 10.7% | viability, T/C [13]: 96% | viability, T/C [14]: 89.6% | viability, T/C [15]: 53.3% | viability, T/C [16]: 20.5% | viability, T/C [17]: 9.11% | viability, T/C [18]: 10.8% | viability, T/C [19]: 99.5% | viability, T/C [20]: 93.7% | viability, T/C [21]: 55.1% | viability, T/C [22]: 21.1% | viability, T/C [23]: 8.57% | viability, T/C [24]: 11.2% | viability, T/C [25]: 100% | viability, T/C [26]: 84.9% | viability, T/C [27]: 54.1% | viability, T/C [28]: 23.2% | viability, T/C [29]: 10.7% | viability, T/C [30]: 9.88% | viability, T/C [31]: 93.8% | viability, T/C [32]: 76.1% | viability, T/C [33]: 60.5% | viability, T/C [34]: 17.4% | viability, T/C [35]: 10.4% | viability, T/C [36]: 10.3%

O=C(Nc1ccc(O)c(NS(=O)(=O)c2ccc(F)cc2)c1)c1ccc(-c2ccccc2)cc1 + COC1C(OC(N)=O)C(O)C(Oc2ccc3c(O)c(NC(=O)c4ccc(O)c(CC=C(C)C)c4)c(=O)oc3c2C)OC1(C)C
pIC50 (second compound 0.0316 µM): < 5.00 | pIC50 (second compound 0.1 µM): < 5.00 | pIC50 (second compound 0.316 µM): < 5.00 | pIC50 (second compound 1 µM): < 5.00 | pIC50 (second compound 3.16 µM): < 5.00 | pIC50 (second compound 10 µM): < 5.00 | viability, T/C [1]: 107% | viability, T/C [2]: 91.7% | viability, T/C [3]: 95.1% | viability, T/C [4]: 98.3% | viability, T/C [5]: 99.8% | viability, T/C [6]: 95.6% | viability, T/C [7]: 116% | viability, T/C [8]: 97.1% | viability, T/C [9]: 101% | viability, T/C [10]: 99.3% | viability, T/C [11]: 84% | viability, T/C [12]: 102% | viability, T/C [13]: 104% | viability, T/C [14]: 100% | viability, T/C [15]: 97.5% | viability, T/C [16]: 101% | viability, T/C [17]: 93.3% | viability, T/C [18]: 101% | viability, T/C [19]: 104% | viability, T/C [20]: 97.4% | viability, T/C [21]: 97.6% | viability, T/C [22]: 96.4% | viability, T/C [23]: 101% | viability, T/C [24]: 94.7% | viability, T/C [25]: 93.9% | viability, T/C [26]: 92.2% | viability, T/C [27]: 93.7% | viability, T/C [28]: 90.8% | viability, T/C [29]: 107% | viability, T/C [30]: 94.2% | viability, T/C [31]: 86.2% | viability, T/C [32]: 81.1% | viability, T/C [33]: 97.8% | viability, T/C [34]: 73.7% | viability, T/C [35]: 89.3% | viability, T/C [36]: 96.5%

COc1cccc2c1C(=O)c1c(O)c3c(c(O)c1C2=O)CC(O)(C(=O)CO)CC3OC1CC(N)C(O)C(C)O1 (stereo not drawn) + Cc1cccc(N(C)C(=O)C2C(O)CCN2c2nc(C)cc(C(F)(F)F)c2C#N)c1
pIC50 (second compound 0.0316 µM): 5.90 | pIC50 (second compound 0.1 µM): 5.92 | pIC50 (second compound 0.316 µM): 6.02 | pIC50 (second compound 1 µM): 5.95 | pIC50 (second compound 3.16 µM): 6.26 | pIC50 (second compound 10 µM): 6.73 | viability, T/C [1]: 96.3% | viability, T/C [2]: 88% | viability, T/C [3]: 81.4% | viability, T/C [4]: 51.8% | viability, T/C [5]: 32.3% | viability, T/C [6]: 11.7% | viability, T/C [7]: 101% | viability, T/C [8]: 97.2% | viability, T/C [9]: 81.6% | viability, T/C [10]: 55.1% | viability, T/C [11]: 26.4% | viability, T/C [12]: 11.6% | viability, T/C [13]: 103% | viability, T/C [14]: 92.7% | viability, T/C [15]: 84.9% | viability, T/C [16]: 45% | viability, T/C [17]: 27.2% | viability, T/C [18]: 12.9% | viability, T/C [19]: 105% | viability, T/C [20]: 95.9% | viability, T/C [21]: 72.6% | viability, T/C [22]: 53.6% | viability, T/C [23]: 28.8% | viability, T/C [24]: 10.3% | viability, T/C [25]: 88.2% | viability, T/C [26]: 93.3% | viability, T/C [27]: 60.3% | viability, T/C [28]: 35.8% | viability, T/C [29]: 17.7% | viability, T/C [30]: 7.76% | viability, T/C [31]: 94.3% | viability, T/C [32]: 65.2% | viability, T/C [33]: 38.3% | viability, T/C [34]: 16.5% | viability, T/C [35]: 11.8% | viability, T/C [36]: 11.6%
